Results: patent US8802597B2, “Herbicidal pyrimidines” (E I du Pont de Nemours and Company, priority 2003, dated 2014)

Tests used:
Assay type in all cases: in vivo
[1] = tested on: Surinam grass (Brachiaria decumbens); experiment: Test B pre/postemergence
Summary of the method: (§1)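 Plants treated pre- or postemergence were compared visually with controls after 13 to 15 days. Ratings ran from 0, no effect, to 100, complete control.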

[2] = tested on: barnyardgrass (Echinochloa crus-galli); experiment: Test B pre/postemergence
Summary of the method: as §1

[3] = tested on: cocklebur (Xanthium strumarium); experiment: Test B pre/postemergence
Summary of the method: as §1

corn (Zea mays) = experiment: Test B pre/postemergence
Summary of the method: as §1

[4] = tested on: crabgrass (Digitaria sanguinalis); experiment: Test B pre/postemergence
Summary of the method: as §1

[5] = tested on: giant foxtail (Setaria faberii); experiment: Test B pre/postemergence
Summary of the method: as §1

[6] = tested on: lambsquarters (Chenopodium album); experiment: Test B pre/postemergence
Summary of the method: as §1

[7] = tested on: morningglory (Ipomoea coccinea); experiment: Test B pre/postemergence
Summary of the method: as §1

[8] = tested on: pigweed (Amaranthus retroflexus); experiment: Test B pre/postemergence
Summary of the method: as §1

[9] = tested on: velvetleaf (Abutilon theophrasti); experiment: Test B pre/postemergence
Summary of the method: as §1

[10] = tested on: wheat (Triticum aestivum); experiment: Test B pre/postemergence
Summary of the method: as §1

[11] = tested on: blackgrass (Alopecurus myosuroides); experiment: Test B postemergence
Summary of the method: as §1

wild oat (Avena fatua) = experiment: Test B postemergence
Summary of the method: as §1

[12] = tested on: barnyardgrass (Echinochloa crus-galli); experiment: Test B flooded paddy test; details: Flood, 1000 g ai/ha; scale 0 (no effect) to 100 (complete control)
Summary of the method: (§2)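 Rice, umbrella sedge, duck salad and barnyardgrass grown to 2-leaf stage under flooded paddy conditions and treated with formulated test chemicals. Kept in greenhouse 13–15 days, then visually rated against untreated controls on a 0–100 scale (0 no effect, 100 complete control).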

[13] = tested on: duck salad (Heteranthera limosa); experiment: Test B flooded paddy test; details: Flood, 1000 g ai/ha; scale 0 to 100
Summary of the method: as §2

rice (Oryza sativa) = experiment: Test B flooded paddy test; details: Flood, 1000 g ai/ha; scale 0 to 100
Summary of the method: as §2

[14] = tested on: umbrella sedge (Cyperus difformis); experiment: Test B flooded paddy test; details: Flood, 1000 g ai/ha; scale 0 to 100
Summary of the method: as §2

[15] = Postemergence, 125 g ai/ha, scale 0 to 100 (0 no effect, 100 complete control)
[16] = Postemergence, 500 g ai/ha, scale 0 to 100
[17] = Preemergence, 125 g ai/ha, scale 0 to 100 (0 no effect, 100 complete control)
[18] = Preemergence, 500 g ai/ha, scale 0 to 100 (0 no effect, 100 complete control)
[19] = 125 g ai/ha, scale 0 to 100 (0 no effect, 100 complete control)

## CN(C)N=Cc1nc(C2CC2)nc(N)c1Br [Compound 50]
[1]; [15]
  Surinam Grass plant response rating: 20
[1]; [16]
  Plant response rating, Surinam Grass: 60
[1]; [17]
  Plant response rating, Surinam Grass: 20
[1]; [18]
  Plant response rating, Surinam Grass: 70
[2]; [15]
  Barnyardgrass plant response rating: 10
[2]; [16]
  Plant response rating, Barnyardgrass: 50
[2]; [17]
  Plant response rating, Barnyardgrass: 30
[2]; [18]
  Plant response rating, Barnyardgrass: 50
[3]; [15]
  Cocklebur plant response rating: 90
[3]; [16]
  Plant response rating, Cocklebur: 90
[3]; [17]
  Plant response rating, Cocklebur: 80
[3]; [18]
  Plant response rating, Cocklebur: 90
Corn (Zea mays); [15]
  Corn plant response rating: 0
Corn (Zea mays); [16]
  Plant response rating, Corn: 40
Corn (Zea mays); [17]
  Plant response rating, Corn: 20
Corn (Zea mays); [18]
  Plant response rating, Corn: 20
[4]; [15]
  Crabgrass plant response rating: 40
[4]; [16]
  Plant response rating, Crabgrass: 80
[4]; [17]
  Plant response rating, Crabgrass: 50
[4]; [18]
  Plant response rating, Crabgrass: 80
[5]; [15]
  Foxtail, Giant plant response rating: 20
[5]; [16]
  Plant response rating, Foxtail, Giant: 70
[5]; [17]
  Plant response rating, Foxtail, Giant: 10
[5]; [18]
  Plant response rating, Foxtail, Giant: 40
[6]; [15]
  Lambsquarters plant response rating: 80
[6]; [16]
  Plant response rating, Lambsquarters: 90
[6]; [17]
  Plant response rating, Lambsquarters: 90
[6]; [18]
  Plant response rating, Lambsquarters: 100
[7]; [15]
  Morningglory plant response rating: 90
[7]; [16]
  Plant response rating, Morningglory: 90
[7]; [17]
  Plant response rating, Morningglory: 80
[7]; [18]
  Plant response rating, Morningglory: 90
[8]; [15]
  Pigweed plant response rating: 80
[8]; [16]
  Plant response rating, Pigweed: 90
[8]; [17]
  Plant response rating, Pigweed: 70
[8]; [18]
  Plant response rating, Pigweed: 90
[9]; [15]
  Velvetleaf plant response rating: 70
[9]; [16]
  Plant response rating, Velvetleaf: 90
[9]; [17]
  Plant response rating, Velvetleaf: 80
[9]; [18]
  Plant response rating, Velvetleaf: 90
[10]; [15]
  Wheat plant response rating: 30
[10]; [16]
  Plant response rating, Wheat: 60
[10]; [17]
  Plant response rating, Wheat: 20
[10]; [18]
  Plant response rating, Wheat: 40
[11]; [19]
  Blackgrass plant response rating: 30
[11]; 500 g ai/ha, scale 0 to 100
  Plant response rating, Blackgrass: 50
Wild oat (Avena fatua); [19]
  Oat, Wild plant response rating: 30
Wild oat (Avena fatua); 500 g ai/ha, scale 0 to 100
  Plant response rating, Oat, Wild: 60
[12]
  Plant response rating, Barnyardgrass: 30
[13]
  Plant response rating, Ducksalad: 40
Rice (Oryza sativa)
  Plant response rating, Rice: 30
[14]
  Plant response rating, Sedge, Umbrella: 0
